Experimental data from patent US20110104716A1, “NOVEL METHOD FOR SCREENING BRAIN-ACTIVE COMPOUNDS” (priority 2007, published 2011).
Entries after “also recorded” stand apart in the source; their conditions may differ. Where two headings read alike, the source gives them in different places.

Test system: hippocampal slices
Test: Hippocampal slice cultures and induction of LTP (immunohistochemistry of LTP markers); as to pCREB: key: ±: no change in the activation status; ++++: a qualitative maximal activation; ++: a half-maximum activation; −: a reduction of activation; as to pMAPK: key: ±: no change in the activation status; ++++: a qualitative maximal activation; ++: a half-maximum activation; −: a reduction of activation
Assay type: cell-based, Wistar rats
Settings: for pCREB / pMAPK: relative activation vs vehicle treated sister cultures, 15 min treatment after 48 h in culture; for AMPA rec. (AMPA receptors on the cell surface): 15 min treatment
Method: Seven-day-old Wistar rats were decapitated using a guillotine. In less than 1 minute the skull was opened, the cerebral hemispheres were separated and transferred and both hippocampi were dissected and transferred into ice cold buffer containing 137 mM NaCl, 5 mM KCl, 0.85 mM Na2HPO4, 1.5 mM CaCl2, 0.66 mM KH2PO4, 0.28 mM MgSO4, 1 mM MgCl2, 2.7 mM NaHCO3, 1 mM Kynurenic acid and 0.6% D-glucose. Transversal hippocampal slices (typically 400 μm) were prepared using a vibrating blade microtome (VT1200S; Leica Microsystems (Schweiz) AG, Heerbrugg, Switzerland) in the same buffer. Hippocampal slices were individually placed on a membrane insert (Millicell Culture Plate Inserts, 0.4 μm) and cultivated at 35° C., 5% CO2, 95% humidity in a medium containing a 1:1 mixture of BME and MEM (both from Invitrogen) containing 25% heat-inactivated horse serum, 1× GlutaMAX, 1× Penicillin/Streptomycin, 0.6% glucose and 1 mM Kynurenic acid (Stoppini et al. 1991 J Neurosci Methods 37(2):173-82). […] Sarcosine (100 μM) and ALX5407 (20 nM) were used routinely as positive controls. […] After the treatments, sections were washed and fixed for immunohistochemistry. Markers of enhanced synaptic activity, normally associated with LTP, representing an in vitro (or ex vivo) model of learning and memory, were quantified (see Table 1, below). Table 1. Relative activation of synaptic markers after treatment with both extracts and some of their constituent compounds in comparison to sister cultures treated with buffer. The activation of any of these markers (or a combination thereof) is observed in classical LTP experiments. Data are compared to vehicle treated sections, which is set as 100%.

[1] = compared to vehicle treated sections set as 100%
[2] = class symbol, vs vehicle treated sister cultures

Compound | LTP-inducing activity (biochemical markers typical for LTP) | pCREB | pMAPK | AMPA rec. (AMPA receptors on the cell surface) [1] | AMPA rec. (AMPA receptors on the cell surface) [2] | LTP-inducing activity (biochemical markers typical for LTP) (listed as p-cemene)
Caryophyllene | lack the LTP-inducing activity | ± | ± |  |  | 
Cc1ccc(C(C)C)c(O)c1 [Thymol] | induced biochemical markers typical for LTP; also recorded: induce activation of biochemical pathway leading to LTP induction | ++++ |  | 250-767% |  | 
NCC(=O)O [Glycine] |  | ++ | ++ |  |  | 
Cc1ccc(C(C)C)cc1O [Carvacrol] | lack the LTP-inducing activity |  | − | 0-176% |  | 
C=CC(C)(O)CCC=C(C)C (centres unmarked) [Linalool] | lack the LTP-inducing activity | ± | ± |  | ± | 
Cc1ccc(C(C)C)cc1 [P-Cymene] | induce activation of biochemical pathway leading to LTP induction | ++ | ++++ |  | ± | induced biochemical markers typical for LTP
